This is an account of results in ChEMBL document CHEMBL1201862, “PubChem BioAssay data set” (2004).

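Cells were grown in 96-well plates and exposed to each compound for 48 hours at five concentrations; endpoints were interpolated linearly between bracketing concentrations, or set to the highest concentration if not reached. GI50 is the concentration that inhibits growth by half.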 Active and inactive are the calls of the source. Rule as the data show it: active = GI50 up to about 1.1 µM and inactive = higher.

Test systems include HCT-15; A549; HL-60; 786-0; UACC-257; COLO 205; MCF7; SW-620; HCT-116; OVCAR-4; MDA-MB-435; HT-29; SN12C; NCI-H226; RPMI-8226; IGROV-1; EKVX; U-251; SK-OV-3; CCRF-CEM.
Common to all, as to assay: inhibition of tumour cell growth, NCI panel, 48 h

For `Cn1c(=O)oc2cc(C(=O)CSC(=S)N3CCCCCC3)ccc21`, the GI50 with HCT-15 is 81.1 µM; in the assay with A549 it was > 100 µM (inactive); with HL-60, 51.8 µM (inactive); in the assay with 786-0, > 100 µM (inactive); in the assay on UACC-257, > 100 µM (inactive); with COLO 205, > 100 µM (inactive). Also, the GI50 with MCF7 was > 100 µM (inactive); in the assay with SW-620 it was > 100 µM (inactive); in the assay with HCT-116, 73.6 µM (inactive); with OVCAR-4 it was > 100 µM (inactive); in the assay with MDA-MB-435, > 100 µM (inactive); in the assay on HT-29 it was 18.7 µM (inactive). Further, the GI50 in the assay on SN12C is > 100 µM (inactive); in the assay on NCI-H226 it was > 100 µM (inactive); with RPMI-8226 it was > 100 µM (inactive); in the assay on IGROV-1, > 100 µM (inactive); with EKVX it was > 100 µM (inactive); with U-251, 72.8 µM (inactive). The GI50 in the assay with SK-OV-3 was > 100 µM (inactive); in the assay on CCRF-CEM, 75.5 µM (inactive).
As for `O=c1c2c(c1=O)C1(SCCCS1)c1cc(Cl)ccc1O2`, the GI50 in the assay on HCT-15 was above 100 µM; in the assay on A549, > 100 µM (inactive); in the assay with HL-60, > 100 µM (inactive); in the assay on 786-0, > 100 µM (inactive); in the assay on UACC-257 it was > 100 µM (inactive); with COLO 205, > 100 µM (inactive). Also, the GI50 with MCF7, in the assay on SW-620, in the assay on HCT-116, in the assay on OVCAR-4, in the assay on MDA-MB-435 and in the assay on HT-29 was > 100 µM (inactive) throughout. The GI50 with SN12C, in the assay with NCI-H226, in the assay on RPMI-8226, in the assay on IGROV-1, in the assay with EKVX and with U-251 was > 100 µM (inactive) each time. Also, the GI50 in the assay on SK-OV-3 and in the assay on CCRF-CEM was > 100 µM (inactive) each time.
For the compound `C=CC[C@H]1[C@H](O[Si](C)(C)C(C)(C)C)C=CC(=O)[C@@H]1CC(=O)OCC`, the GI50 with HCT-15 is 13.5 µM; in the assay with A549, 11.7 µM (inactive); with HL-60 it was 8.04 µM (inactive); in the assay with 786-0, 14.5 µM (inactive); with UACC-257 it was 3.98 µM (inactive); in the assay with COLO 205 it was 15.3 µM (inactive). For the same compound, the GI50 in the assay on MCF7 is 11.5 µM (inactive); in the assay on SW-620, 15.5 µM (inactive); in the assay with HCT-116, 11.4 µM (inactive); with OVCAR-4, 11.8 µM (inactive); in the assay on MDA-MB-435 it was 13.4 µM (inactive); in the assay with HT-29, 9.06 µM (inactive). The GI50 in the assay with SN12C is 16.3 µM (inactive); in the assay with NCI-H226, 14.8 µM (inactive); in the assay with RPMI-8226, 2.31 µM (inactive); in the assay with IGROV-1, 16.4 µM (inactive); in the assay with EKVX, 11.9 µM (inactive); with U-251 it was 14.6 µM (inactive). The GI50 in the assay on SK-OV-3 was 18.3 µM (inactive); with CCRF-CEM, 12 µM (inactive).
Take `Fc1cc(C2=C[C@H](c3ccc4c(c3)OCO4)NC(=S)N2)c(Cl)cc1Cl`: the GI50 is 37.4 µM in the assay with HCT-15; 35.6 µM (inactive) in the assay on A549; 0.0303 µM (active) in the assay with HL-60; 39.9 µM (inactive) with 786-0; 26.3 µM (inactive) with UACC-257; 20.9 µM (inactive) with COLO 205. In addition, the GI50 is 32.2 µM (inactive) in the assay with MCF7; 36 µM (inactive) with SW-620; 27.5 µM (inactive) with HCT-116; 38.1 µM (inactive) in the assay with OVCAR-4; 34.6 µM (inactive) in the assay with MDA-MB-435; 27.9 µM (inactive) in the assay with HT-29. The GI50 in the assay with SN12C was 27.4 µM (inactive); in the assay with NCI-H226, 59.2 µM (inactive); in the assay with RPMI-8226, 22.9 µM (inactive); in the assay on IGROV-1, 27.4 µM (inactive); in the assay with EKVX, 22.2 µM (inactive); in the assay on U-251, 22.9 µM (inactive). The values for the GI50 in the assay on SK-OV-3 and in the assay with CCRF-CEM were 57 µM (inactive) and 21.8 µM (inactive), respectively.
Regarding `Nc1nc(Cl)c(N)c(NCC2(CO)CC(OCc3ccccc3)C2)n1` (stereo not given), the GI50 in the assay with HCT-15 was above 100 µM; with A549, > 100 µM (inactive); in the assay on HL-60 it was > 100 µM (inactive); with 786-0 it was > 100 µM (inactive); in the assay with UACC-257, 48.4 µM (inactive); in the assay on COLO 205, > 100 µM (inactive). Besides, the GI50 was 11.3 µM (inactive) in the assay on MCF7; > 100 µM (inactive) in the assay with SW-620; 44.8 µM (inactive) in the assay on HCT-116; > 100 µM (inactive) in the assay with OVCAR-4; > 100 µM (inactive) in the assay on MDA-MB-435; > 100 µM (inactive) in the assay on HT-29. Moreover, the GI50 in the assay with SN12C, in the assay with NCI-H226, with RPMI-8226, in the assay with IGROV-1, in the assay on EKVX and in the assay with U-251 was > 100 µM (inactive) each time. For the same compound, the GI50 in the assay with SK-OV-3 and in the assay on CCRF-CEM was > 100 µM (inactive) throughout.
For the compound `O=C1O/C(=C(/Cl)c2c3ccccc3cc3ccccc23)c2ccccc21`, the GI50 in the assay on HCT-15 was 20.6 µM; in the assay with A549 it was 37.1 µM (inactive); in the assay with HL-60, 4.1 µM (inactive); in the assay on 786-0, 14.4 µM (inactive); in the assay with UACC-257, 33.2 µM (inactive); in the assay with COLO 205, 23.2 µM (inactive). Moreover, the GI50 in the assay with MCF7 is 32.1 µM (inactive); with SW-620, 30.7 µM (inactive); with HCT-116, 3.03 µM (inactive); with OVCAR-4 it was 17.2 µM (inactive); in the assay with MDA-MB-435, 22.2 µM (inactive); in the assay with HT-29, 13.1 µM (inactive). For the same compound, the GI50 in the assay on SN12C is 26.1 µM (inactive); in the assay with NCI-H226 it was 26.7 µM (inactive); in the assay on RPMI-8226 it was 20.3 µM (inactive); with IGROV-1 it was 22.5 µM (inactive); in the assay with EKVX, 26.4 µM (inactive); in the assay with U-251, 30.5 µM (inactive). Moreover, the GI50 in the assay on SK-OV-3 is 69.5 µM (inactive); in the assay with CCRF-CEM, 4 µM (inactive).
As for `O=c1[nH]nc(Cc2ccccc2)n1C1CC1`, the GI50 with HCT-15 was above 100 µM; with A549, > 100 µM (inactive); with HL-60, > 100 µM (inactive); in the assay on 786-0, > 100 µM (inactive); with UACC-257 it was > 100 µM (inactive); in the assay with COLO 205 it was > 100 µM (inactive). For the same compound, the GI50 in the assay with MCF7, in the assay with SW-620, in the assay with HCT-116, in the assay on OVCAR-4, with MDA-MB-435 and with HT-29 was > 100 µM (inactive) each time. The GI50 with SN12C, with NCI-H226, with RPMI-8226, in the assay on IGROV-1, in the assay with EKVX and with U-251 was > 100 µM (inactive) throughout. The GI50 in the assay with SK-OV-3 and in the assay with CCRF-CEM was > 100 µM (inactive) throughout.
Turning to `CC1(C)CN=C(Nc2ccc(Cl)cc2)S1`, the GI50 in the assay on HCT-15 was above 100 µM; with A549, > 100 µM (inactive); in the assay with HL-60 it was 30.5 µM (inactive); with 786-0, > 100 µM (inactive); in the assay with UACC-257, 70 µM (inactive); in the assay with COLO 205, > 100 µM (inactive). The GI50 in the assay with MCF7 was > 100 µM (inactive); in the assay with SW-620 it was > 100 µM (inactive); with HCT-116, 69.5 µM (inactive); with OVCAR-4, 72.3 µM (inactive); in the assay with MDA-MB-435, > 100 µM (inactive); in the assay with HT-29 it was 43.1 µM (inactive). The GI50 in the assay with SN12C is > 100 µM (inactive); in the assay with NCI-H226, > 100 µM (inactive); in the assay on RPMI-8226, 52.6 µM (inactive); with IGROV-1 it was > 100 µM (inactive); with EKVX, 64 µM (inactive); in the assay with U-251 it was > 100 µM (inactive). In addition, the GI50 was > 100 µM (inactive) with SK-OV-3 and 74.3 µM (inactive) in the assay on CCRF-CEM.
For `OC1CN2Cc3cc4c(cc3[C@]13C=C[C@@H](O)CC23)OCO4` (stereo not given in full), the GI50 with HCT-15 was 30.3 µM; in the assay on A549, 19.5 µM (inactive); with HL-60, 21.2 µM (inactive); in the assay on 786-0, 20.9 µM (inactive); in the assay with UACC-257, 7.89 µM (inactive); with COLO 205 it was 22.3 µM (inactive). For the same compound, the GI50 in the assay with MCF7 was 16.4 µM (inactive); in the assay on SW-620 it was 28 µM (inactive); in the assay on HCT-116, 14.2 µM (inactive); in the assay with OVCAR-4, 19.8 µM (inactive); with MDA-MB-435, 20 µM (inactive); in the assay with HT-29, 10.9 µM (inactive). The GI50 was 25.1 µM (inactive) in the assay on SN12C; > 100 µM (inactive) in the assay on NCI-H226; 32.6 µM (inactive) in the assay with RPMI-8226; 18.3 µM (inactive) with IGROV-1; 15.4 µM (inactive) in the assay on EKVX; 30.8 µM (inactive) in the assay on U-251. The GI50 was 20.2 µM (inactive) with SK-OV-3 and 8.57 µM (inactive) in the assay on CCRF-CEM.
For `CC(C)(C)CN1[C@@H]2CCCC[C@H]2N(CC(C)(C)C)P1(=O)C(O)/C=C/c1ccccc1` (stereo not given in full), the GI50 with HCT-15 is 18.5 µM; in the assay on A549, 25.1 µM (inactive); with HL-60, 32 µM (inactive); in the assay with 786-0 it was 39.4 µM (inactive); in the assay with UACC-257 it was 30.1 µM (inactive); in the assay with COLO 205 it was 17.3 µM (inactive). Further, the GI50 with MCF7 was 28.6 µM (inactive); in the assay with SW-620 it was 34.2 µM (inactive); in the assay on HCT-116, 29.8 µM (inactive); with OVCAR-4, 45.4 µM (inactive); in the assay on MDA-MB-435, 42.1 µM (inactive); in the assay with HT-29, 31.5 µM (inactive). Also, the GI50 is 22.2 µM (inactive) in the assay on SN12C; 22.7 µM (inactive) in the assay with NCI-H226; 19.5 µM (inactive) with RPMI-8226; 25.6 µM (inactive) in the assay with IGROV-1; 50.1 µM (inactive) in the assay with EKVX; 41.4 µM (inactive) in the assay on U-251. Moreover, the GI50 with SK-OV-3 was 51.8 µM (inactive); in the assay on CCRF-CEM, 34.3 µM (inactive).
